In patent publication US5043353A, “A80789 polyether antibiotic” (Eli Lilly and Company, priority 1989, dated 1991):

Tested on: Culture A80789
Experiment: Antibiotic sensitivity disc test on the producing culture
Assay type: cell-based, Streptomyces hygroscopicus
Conditions: ISP No. 2 agar
Protocol: Resistance to antibiotics was measured by padding antibiotic sensitivity discs onto the surface of seeded ISP No. 2 agar plates. Resistance was scored as (+) when no zone of inhibition was observed and as (-) when a zone of inhibition was observed.

Row | Compound | Resistance of culture to antibiotic (disc 10 mcg) | Resistance of culture to antibiotic (disc 30 mcg) | other results
1 | CO[C@H]1/C=C/O[C@@]2(C)Oc3c(C)c(O)c4c(O)c(c(/C=N/N5CCN(C)CC5)c(O)c4c3C2=O)NC(=O)/C(C)=C\C=C\[C@H](C)[C@H](O)[C@@H](C)[C@@H](O)[C@@H](C)[C@H](OC(C)=O)[C@@H]1C [rifampin] |  |  | Resistance of culture to antibiotic (disc 5 mcg): resistant
2 | [H]/N=C(/N)N[C@H]1[C@H](O)[C@@H](O)[C@H](O[C@@H]2O[C@@H](C)[C@](O)(C=O)[C@H]2O[C@@H]2O[C@@H](CO)[C@H](O)[C@@H](O)[C@@H]2NC)[C@@H](N/C(N)=N\[H])[C@@H]1O [streptomycin] | sensitive |  | 
3 | CN(C)[C@@H]1C(=O)C(C(N)=O)=C(O)[C@@]2(O)C(=O)C3=C(O)c4c(O)cccc4[C@@](C)(O)[C@H]3C[C@@H]12 [tetracycline] |  | sensitive | 
4 | NC[C@H]1O[C@H](O[C@H]2[C@H](O)[C@@H](O[C@H]3O[C@H](CO)[C@@H](O)[C@H](N)[C@H]3O)[C@H](N)C[C@@H]2N)[C@H](N)C[C@@H]1O [tobramycin] | sensitive |  | 
5 | CN[C@H](CC(C)C)C(=O)N[C@H]1C(=O)N[C@@H](CC(N)=O)C(=O)N[C@H]2C(=O)N[C@H]3C(=O)N[C@H](C(=O)N[C@H](C(=O)O)c4cc(O)cc(O)c4-c4cc3ccc4O)[C@H](O)c3ccc(c(Cl)c3)Oc3cc2cc(c3O[C@@H]2O[C@H](CO)[C@@H](O)[C@H](O)[C@H]2O[C@H]2C[C@](C)(N)[C@H](O)[C@H](C)O2)Oc2ccc(cc2Cl)[C@H]1O [vancomycin] |  | sensitive | 
6 | gentamicin | sensitive |  | 
7 | neomycin |  | sensitive | 
